Reference: patent publication US5147876A, “2,6-di,2,4,6-, 2,5,6-tri and 2,4,5,6-tetra-substituted pyrimidines, their pharmaceutically acceptable salts, pharmaceutical compositions containing same and their use in the treatment of neurological diseases” (Mitsui Petrochemical Industries, Ltd., priority 1988, dated 1992)

Legend:
[1] = test system: NS-20Y (mouse neuroblastoma cells); assay: Activity on NS-20Y cells: appearance of neurites; format: cell-based
Description: The effects of the compounds of this invention on neuroblastoma cells were examined by the following method.
Mouse neuro 2a cells in the logarithmic growth period in the Dulbecco's modified Eagle's medium DMEM, containing 100 units/ml of penicillin G sodium and 100 micrograms/ml of streptomycin sulfate]containing 10 % of FCS were seeded in a 48-well plate so that the number of cells was 1,000 cells/well, and cultured for one day in 0.25 ml of the culture fluid in each well in an incubator containing 5 % of carbon dioxide gas in air at 37° C. Then, a 4 % aqueous glutaraldehyde solution in the same amount as a medium (0.25 ml) was added, and the culture fluid was left to stand at room temperature for 2 hours to fix the cells. After washing with water, a 0.05 % aqueous solution of methylene blue was added to stain the cells Under a microscope, the number of cells containing outgrown neurites (cells having at least one neurite with a length of at least two times as large as the long diameter of the cell) was counted visually, and the proportion of these cells in the entire cells was calculated. The well was observed over 5 or more visual fields (at least 2 % of the entire surface area of the well) continuous to the left and right from a mark put at the center of the well, and more than 200 cells was counted. One drug compound was used in 6 different concentrations at most, and three runs were conducted for each concentrations.
Mouse neuroblastoma cells NS-20Y were similarly cultured in a dish coated with polyornithine, and the effects of the compounds were examined.

Acute toxicity on mice = format: in vivo; settings: mouse, in vivo, ip, 24 hours after administration; read-out: Estimated LD50
Description: The acute toxicity of the compounds of the invention was examined by the following method.
Male ddy-strain 5-week old mice, 4-6- per group, were used as experimental animals. Each of the compounds was intraperitoneally (i.p.), and the toxicity of the compound was assessed 24 hours after the administration.

[2] = test system: neuro-2a (mouse neuroblastoma cells); assay: Action on neuro-2a: proportion of cells containing outgrown neurites; format: cell-based; settings: mean ± S.D.
How it was run: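 Mouse neuro-2a cells at 1,000 cells/well in DMEM with 10% FCS were cultured one day at 37 °C, 5% CO2, then glutaraldehyde-fixed and methylene-blue-stained. The proportion of cells bearing a neurite at least twice the cell's long diameter was counted over >200 cells; up to 6 concentrations, triplicate runs.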

## CCCCN(CCCC)c1nccc(N(C)C(=O)c2ccccc2)n1 [Compound 112]
[1]; 24 hours, 0.025 mM
  Number of cells in which neurites appeared/total number of cells: 4/51
[1]; 48 hours, 0.01 mM
  Number of cells in which neurites appeared/total number of cells: 4/49
[1]; 48 hours, 0.025 mM
  Number of cells in which neurites appeared/total number of cells: 9/50
Acute toxicity on mice
  LD50 at 24 h: > 1000 mg/kg
[2]; 0.03 mM
  Number of cells having neurites with a length at least two times the diameter of each cell/total number of cells: 4.8 ± 0.1%
[2]; 0.1 mM
  Number of cells having neurites with a length at least two times the diameter of each cell/total number of cells: 18.6 ± 5.2%
[2]; 0.3 mM
  Number of cells having neurites with a length at least two times the diameter of each cell/total number of cells: 2.6 ± 0.6%
[2]; 1 mM
  Number of cells having neurites with a length at least two times the diameter of each cell/total number of cells: 7.6 ± 4.9%

## CN(C(=O)c1ccccc1)c1ccnc(N2CCCC2)n1 [Compound 120]
[1]; 24 hours, 0.5 mM
  Number of cells in which neurites appeared/total number of cells: 23/50
[1]; 48 hours, 0.5 mM
  Number of cells in which neurites appeared/total number of cells: 4/50
Acute toxicity on mice
  LD50 at 24 h: > 1000 mg/kg
[2]; 0.1 mM
  Number of cells having neurites with a length at least two times the diameter of each cell/total number of cells: 4.9 ± 1.0%
[2]; 0.3 mM
  Number of cells having neurites with a length at least two times the diameter of each cell/total number of cells: 7.5 ± 4.1%

## CC(=O)N(C)c1ccnc(N2CCCCC2)n1 [Compound 128]
[1]; 24 hours, 0.3 mM
  Number of cells in which neurites appeared/total number of cells: 4/49
[1]; 24 hours, 1.0 mM
  Number of cells in which neurites appeared/total number of cells: 23/55
[1]; 48 hours, 0.3 mM
  Number of cells in which neurites appeared/total number of cells: 31/50
[1]; 48 hours, 0.5 mM
  Number of cells in which neurites appeared/total number of cells: 21/50
Acute toxicity on mice
  LD50 at 24 h: > 1000 mg/kg
[2]; 0.3 mM
  Number of cells having neurites with a length at least two times the diameter of each cell/total number of cells: 9.9 ± 0.6%
[2]; 0.5 mM
  Number of cells having neurites with a length at least two times the diameter of each cell/total number of cells: 9.1 ± 0.7%
[2]; 1 mM
  Number of cells having neurites with a length at least two times the diameter of each cell/total number of cells: 19.8 ± 2.8%
[2]; 2 mM
  Number of cells having neurites with a length at least two times the diameter of each cell/total number of cells: 14.3 ± 2.4%

## CN(C(=O)c1ccccc1)c1ccnc(N2CCCCC2)n1 [Compound 136]
[1]; 24 hours, 0.1 mM
  Number of cells in which neurites appeared/total number of cells: 9/50
[1]; 24 hours, 0.4 mM
  Number of cells in which neurites appeared/total number of cells: 42/50
[1]; 48 hours, 0.4 mM
  Number of cells in which neurites appeared/total number of cells: 15/50
Acute toxicity on mice
  LD50 at 24 h: > 1000 mg/kg
[2]; 0.1 mM
  Number of cells having neurites with a length at least two times the diameter of each cell/total number of cells: 11.6 ± 6.3%
[2]; 0.3 mM
  Number of cells having neurites with a length at least two times the diameter of each cell/total number of cells: 12.1 ± 2.9%

## CC1CCN(c2nccc(N(C)C(=O)c3ccccc3)n2)CC1 [Compound 144]
[1]; 24 hours, 0.1 mM
  Number of cells in which neurites appeared/total number of cells: 37/50
[1]; 48 hours, 0.025 mM
  Number of cells in which neurites appeared/total number of cells: 6/50
[1]; 48 hours, 0.05 mM
  Number of cells in which neurites appeared/total number of cells: 8/52
[1]; 48 hours, 0.1 mM
  Number of cells in which neurites appeared/total number of cells: 31/50
Acute toxicity on mice
  LD50 at 24 h: > 1000 mg/kg
[2]; 0.1 mM
  Number of cells having neurites with a length at least two times the diameter of each cell/total number of cells: 13.7 ± 7.8%
[2]; 0.3 mM
  Number of cells having neurites with a length at least two times the diameter of each cell/total number of cells: 33.8 ± 8.6%

## CN(C(=O)c1ccccc1)c1ccnc(N2CCC(C(C)(C)C)CC2)n1 [Compound 152]
[1]; 24 hours, 0.05 mM
  Number of cells in which neurites appeared/total number of cells: 3/50
[1]; 48 hours, 0.025 mM
  Number of cells in which neurites appeared/total number of cells: 2/50
Acute toxicity on mice
  LD50 at 24 h: > 1000 mg/kg
[2]; 0.03 mM
  Number of cells having neurites with a length at least two times the diameter of each cell/total number of cells: 6.2 ± 2.3%
[2]; 0.1 mM
  Number of cells having neurites with a length at least two times the diameter of each cell/total number of cells: 33.8 ± 4.7%

## O=C(Nc1ccnc(N2CCC(c3ccccc3)CC2)n1)c1ccccc1 [Compound 160]
[1]; 24 hours, 0.5 mM
  Number of cells in which neurites appeared/total number of cells: 10/53
[1]; 48 hours, 0.5 mM
  Number of cells in which neurites appeared/total number of cells: 2/50
Acute toxicity on mice
  LD50 at 24 h: > 1000 mg/kg
[2]; 0.1 mM
  Number of cells having neurites with a length at least two times the diameter of each cell/total number of cells: 11.3 ± 6.3%
[2]; 0.3 mM
  Number of cells having neurites with a length at least two times the diameter of each cell/total number of cells: 6.7 ± 4.3%

## CN(C(=O)C=Cc1ccccc1)c1ccnc(N2CCC(c3ccccc3)CC2)n1 [Compound 170-2]
[1]; 24 hours, 0.1 mM
  Number of cells in which neurites appeared/total number of cells: 3/50
[1]; 48 hours, 0.1 mM
  Number of cells in which neurites appeared/total number of cells: 2/50
Acute toxicity on mice
  LD50 at 24 h: 500 to 1000 mg/kg
[2]; 0.1 mM
  Number of cells having neurites with a length at least two times the diameter of each cell/total number of cells: 14.7 ± 1.1%
[2]; 0.3 mM
  Number of cells having neurites with a length at least two times the diameter of each cell/total number of cells: 5.6 ± 2.1%
[2]; 1 mM
  Number of cells having neurites with a length at least two times the diameter of each cell/total number of cells: 13.9 ± 3.0%

## CCN(C(=O)c1ccccc1)c1ccnc(N2CCC(c3ccccc3)CC2)n1 [Compound 176]
[1]; 24 hours, 0.1 mM
  Number of cells in which neurites appeared/total number of cells: 8/50
[1]; 48 hours, 0.02 mM
  Number of cells in which neurites appeared/total number of cells: 2/50
Acute toxicity on mice
  LD50 at 24 h: > 1000 mg/kg
[2]; 0.03 mM
  Number of cells having neurites with a length at least two times the diameter of each cell/total number of cells: 5.3 ± 1.9%
[2]; 0.1 mM
  Number of cells having neurites with a length at least two times the diameter of each cell/total number of cells: 3.2 ± 3.1%

## CCCN(C(=O)c1ccccc1)c1ccnc(N2CCC(c3ccccc3)CC2)n1 [Compound 184]
[1]; 24 hours, 0.02 mM
  Number of cells in which neurites appeared/total number of cells: 8/50
[1]; 24 hours, 0.1 mM
  Number of cells in which neurites appeared/total number of cells: 5/48
[1]; 48 hours, 0.02 mM
  Number of cells in which neurites appeared/total number of cells: 3/50
Acute toxicity on mice
  LD50 at 24 h: > 1000 mg/kg
[2]; 0.1 mM
  Number of cells having neurites with a length at least two times the diameter of each cell/total number of cells: 18.8 ± 4.7%
[2]; 0.3 mM
  Number of cells having neurites with a length at least two times the diameter of each cell/total number of cells: 16.0 ± 2.4%

## O=C(c1ccccc1)N(Cc1ccccc1)c1ccnc(N2CCC(c3ccccc3)CC2)n1 [Compound 192]
[1]; 24 hours, 0.4 mM
  Number of cells in which neurites appeared/total number of cells: 23/50
[1]; 48 hours, 0.4 mM
  Number of cells in which neurites appeared/total number of cells: 4/50
Acute toxicity on mice
  LD50 at 24 h: 500 to 1000 mg/kg
[2]; 0.3 mM
  Number of cells having neurites with a length at least two times the diameter of each cell/total number of cells: 12.1 ± 1.5%
[2]; 1 mM
  Number of cells having neurites with a length at least two times the diameter of each cell/total number of cells: 14.6 ± 1.0%

## CC(=O)N(C)c1ccnc(N2CCC(c3ccccc3)CC2)n1 [Compound 208]
[1]; 24 hours, 0.1 mM
  Number of cells in which neurites appeared/total number of cells: 27/53
[1]; 24 hours, 0.25 mM
  Number of cells in which neurites appeared/total number of cells: 17/51
[1]; 48 hours, 0.1 mM
  Number of cells in which neurites appeared/total number of cells: 28/50
Acute toxicity on mice
  LD50 at 24 h: > 1000 mg/kg
[2]; 0.5 mM
  Number of cells having neurites with a length at least two times the diameter of each cell/total number of cells: 7.2 ± 2.3%
[2]; 1 mM
  Number of cells having neurites with a length at least two times the diameter of each cell/total number of cells: 10.6 ± 1.5%
[2]; 2 mM
  Number of cells having neurites with a length at least two times the diameter of each cell/total number of cells: 11.1 ± 1.2%
[2]; 3 mM
  Number of cells having neurites with a length at least two times the diameter of each cell/total number of cells: 8.0 ± 4.0%

## CC(C)C(=O)N(C)c1ccnc(N2CCC(c3ccccc3)CC2)n1 [Compound 216]
[1]; 24 hours, 0.025 mM
  Number of cells in which neurites appeared/total number of cells: 3/49
[1]; 48 hours, 0.025 mM
  Number of cells in which neurites appeared/total number of cells: 24/50
[1]; 48 hours, 0.05 mM
  Number of cells in which neurites appeared/total number of cells: 20/50
Acute toxicity on mice
  LD50 at 24 h: > 1000 mg/kg
[2]; 0.01 mM
  Number of cells having neurites with a length at least two times the diameter of each cell/total number of cells: 3.7 ± 0.4%
[2]; 0.03 mM
  Number of cells having neurites with a length at least two times the diameter of each cell/total number of cells: 6.3 ± 2.4%
[2]; 0.1 mM
  Number of cells having neurites with a length at least two times the diameter of each cell/total number of cells: 26.6 ± 5.6%

## CN(C(=O)c1ccccc1)c1ccnc(N2CCC(OS(=O)(=O)c3ccccc3)CC2)n1 [Compound 2350]
Acute toxicity on mice
  LD50 at 24 h: 500 to 1000 mg/kg
[2]; 0.3 mM
  Number of cells having neurites with a length at least two times the diameter of each cell/total number of cells: 5.9 ± 1.5%
[2]; 1 mM
  Number of cells having neurites with a length at least two times the diameter of each cell/total number of cells: 8.3 ± 2.0%

## CN1C(=O)Cc2cnc(N3CCN(C(c4ccc(Cl)cc4)c4ccc(Cl)cc4)CC3)nc21 [Compound 3176]
Acute toxicity on mice
  LD50 at 24 h: 500 to 1000 mg/kg
[2]; 0.03 mM
  Number of cells having neurites with a length at least two times the diameter of each cell/total number of cells: 7.3 ± 3.3%
[2]; 0.1 mM
  Number of cells having neurites with a length at least two times the diameter of each cell/total number of cells: 23.1 ± 4.8%
[2]; 0.3 mM
  Number of cells having neurites with a length at least two times the diameter of each cell/total number of cells: 21.2 ± 4.9%
[2]; 1 mM
  Number of cells having neurites with a length at least two times the diameter of each cell/total number of cells: 14.6 ± 5.0%

## CN1C(=O)Cc2cnc(N3CCN(C(c4ccc(F)cc4)c4ccc(F)cc4)CC3)nc21 [Compound 3184]
Acute toxicity on mice
  LD50 at 24 h: 500 to 1000 mg/kg
[2]; 0.03 mM
  Number of cells having neurites with a length at least two times the diameter of each cell/total number of cells: 3.7 ± 1.1%
[2]; 0.1 mM
  Number of cells having neurites with a length at least two times the diameter of each cell/total number of cells: 13.9 ± 2.3%
[2]; 0.3 mM
  Number of cells having neurites with a length at least two times the diameter of each cell/total number of cells: 18.4 ± 1.9%
[2]; 1 mM
  Number of cells having neurites with a length at least two times the diameter of each cell/total number of cells: 17.0 ± 2.1%
